In PMC6739424, “Osh Proteins Control Nanoscale Lipid Organization Necessary for PI(4,5)P2 Synthesis” (Molecular Cell, 2019):

Target: T1, zPIP5K (zebrafish PIP5K1A, zPIP5K1Aα) (Danio rerio, UniProt Q503I3)
T1 construct: gene pip5k1aa; kinase domain aa 49-431, His-tagged (pET21b+), E. coli
Experiment: real-time liposome assay with NBD-PHPLCδ PI([…])P2 sensor
Type: biochemical
Conditions: ATP 80 uM, 2 mM MgCl2, pH 7.5; liposomes without PS or sterol; allosteric sigmoidal fit

T1 sequence (Q503I3 49-431): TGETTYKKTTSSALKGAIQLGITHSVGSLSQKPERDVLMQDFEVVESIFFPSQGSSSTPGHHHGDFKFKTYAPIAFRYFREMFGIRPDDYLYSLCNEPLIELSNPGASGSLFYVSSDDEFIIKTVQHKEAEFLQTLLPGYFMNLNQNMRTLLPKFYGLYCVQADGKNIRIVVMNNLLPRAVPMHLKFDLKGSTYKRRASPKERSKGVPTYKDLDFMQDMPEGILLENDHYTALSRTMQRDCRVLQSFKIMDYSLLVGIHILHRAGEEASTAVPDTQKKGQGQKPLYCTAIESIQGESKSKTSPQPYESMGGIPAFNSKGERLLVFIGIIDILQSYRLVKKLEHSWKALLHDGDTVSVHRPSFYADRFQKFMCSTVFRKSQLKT

## L-α-phosphatidylinositol-4-phosphate [bPI4P]
  apparent Km: 6.2 mol%
